# Reference: US7323541B2, “Polypeptide DNA thereof and use of the same” (Takeda Pharmaceutical Company Limited, priority 2001, dated 2008)
# Where no end group is shown, it is not given here.
# System: human colon cancer cell line LS 174T
# Experiment: Growth of carcinomas of LS 174T in nude mice
# Format: in vivo, nude mice (BALB/cAnN-nu)
# Conditions: osmotic pump 48 nmol/day for 14 days, 11th to 20th day, vs distilled water
# Protocol: Effects on the growth of carcinomas by the human TGR23-2 ligand (1-20) in nude mice of human colon cancer cell line LS 174T were investigated.
# The LS 174T dissolved in PBS (phosphate buffered saline) was subcutaneously administered at the ratio of 4×10^6 cells/200 μl/mouse to left abdominal of female nude mice (BALB/cAnN-nu, six weeks old). After three hours of administration, 100 μl of the human TGR23-2 ligand (1-20) dissolved in Otsuka distilled water at the concentration of 2 mM, or Otsuka distilled water was filled in the Micro-Osmotic Pump (alza, model 1002), and further embedded under the skin in the back of mouse under anesthesia (n=10 per each group). From this day, the human TGR23-2 ligand (1-20) was continuously released for 14 days at 48 nmol/day. From the third day of administration, dimensions of the carcinoma were measured, and carcinoma volume was calculated based on the formula: (major axis)×(minor axis)^2/2.
sequence,measurement,value
SFRNGVGTGMKKTSFQRAKS [human TGR23-2 ligand (1-20)],carcinoma volume of LS 174T,has a tendency to increase
